Reference: US20100152301A1, “Treatment of Viral Infections” (GOVERNMENT OF THE US, AS REPRESENTED BY THE SECRETARY, …, priority 2005, published 2010)

Legend:
[1] = molecular target: T1, HIV-1 integrase (Human immunodeficiency virus type 1 group M subtype B, UniProt P04585); assay: Integrase catalytic assay, strand transfer (ST), 21 bp duplex substrate; format: biochemical; details: for inhibition activity, ST, 21 bp substrate: drug concentration of 333 μM; for inhibition at 333 µM: read-out: inhibition activity, ST, 21 bp substrate
T1 construct: Expression and purification of the recombinant HIV-1 integrase in Escherichia coli; made in house; host or cells: Escherichia coli
Method: (§1) Recombinant HIV integrase and oligonucleotide substrates. Expression and purification of the recombinant HIV-1 integrase in Escherichia coli were performed according to (Leh et al., 2000; Marchand et al., 2001) with addition of 10% glycerol to all buffers. The preparation of the Q148C/SSS-mutant integrase will be described elsewhere (Johnson et al., 2005). The oligonucleotide substrates, except those used for the disulfide crosslinking (FIG. 5A), were purchased from Integrated DNA Technologies, Inc. (Coraville, Iowa) and purified by polyacrylamide gel. The single-stranded oligonucleotides were 5′-end labeled with [γ^32P]-ATP (Perkin Elmer, Wellesley, M A) and T4 polynucleotide kinase (New England BioLabs, Ipswich, M A). Unincorporated nucleotide was removed using mini Quick Spin Oligo columns (Roche Diagnostics, Indianapolis, Ind.). Substrates were obtained after annealing with complementary non-labeled oligonucleotides. The thiol-modified substrate (FIG. 5A) for disulfide crosslinking assay was synthesized as essentially described by W. Santos and G. Verdine (Department of Chemistry and Chemical Biology, Harvard University, Cambridge, Mass.) (They and Verdine, 2002).
(§2) Integrase catalytic assays. Reactions were performed in 10 μl with 300 nM of recombinant IN, 20 nM of the 5′-end [^32P]-labeled oligonucleotide substrates and inhibitors at the indicated concentrations. 10% DMSO was included in controls. Reactions were incubated for 40 min at 37° C. in a buffer containing a final concentration of 25 mM MOPS, pH 7.2, 25 mM NaCl, 14.3 mM β-mercaptoethanol and 7.5 mM of divalent cations (MgCl2 or MnCl2 as indicated). Reactions were stopped by addition of 20 μl loading dye (10 mM EDTA, 98% deionized formamide, 0.025% xylene cyanol and 0.025% bromophenol blue). Reactions were heated at 95° C. for 1 min before electrophoresis in 20% polyacrylamide-7 M urea gels. Gels were dried and reaction products were visualized and quantitated with a Molecular Dynamics PhosphorImager (Sunnyvale, Calif.). Densitometric analyses were performed using ImageQuant from the Molecular Dynamics software. The concentrations at which enzyme activity was reduced by 50% (IC50), was determined using “Prism” software (GraphPad Software, San Diego, Calif.) for nonlinear regression to fit dose-response data to logistic curve models.

[2] = molecular target: T1, HIV-1 integrase; assay: Integrase catalytic assay, 3′-processing (3′-P), 21 bp duplex substrate; format: biochemical; details: for IC50: In vitro IC50 21 bp substrate 3′-P; for inhibition at 333 µM: drug concentration of 333 μM
Method: as §1, §2

[3] = molecular target: T1, HIV-1 integrase; assay: Strand transfer assay with preprocessed (19/21) DNA substrate; format: biochemical; details: for IC50: In vitro IC50 Preprocessed substrate; for inhibition at 333 µM: drug concentration of 333 μM
Method: as §1, §2

[4] = molecular target: T1, HIV-1 integrase; assay: Disintegration assay with Y-oligomer substrate; format: biochemical; details: for IC50: In vitro IC50 Disintegration; for inhibition activity, disintegration: drug concentration of 333 μM; for inhibition at 333 µM: read-out: inhibition activity, disintegration
Method: as §1, §2

[5] = molecular target: T2, Q148C/SSS-mutant integrase (Human immunodeficiency virus type 1 group M subtype B, UniProt P04585, C1203S/C1212S/C1427S/Q1295C); assay: biochemical; format: binding, HIV-1; details: drug 1 mM; Mg2+ or Mn2+ (FIG. 5B)
T2 construct: 10 μM recombinant Q148C/SSS-mutant integrase was incubated with 10 μM DNA substrate; made in house
Method: Briefly, 10 μM recombinant Q148C/SSS-mutant integrase was incubated with 10 μM DNA substrate (FIG. 5A) containing tethered thiols in the presence of 20 mM Tris, pH 7.4, 10% glycerol and 7.5 mM of divalent cations (MgCl2 or MnCl2 as indicated) for 20 min at 37° C. Reactions were stopped by the addition of 20 mM methylmethanethiosulfonate (capping reagent). Non-reducing gel loading buffer (100 mM Tris-HCl, pH 6.8, 4% SDS, 0.2% bromophenol blue, 20% glycerol) was added and samples were heated at 95° C. before loading onto 16% tricine gels (Invitrogen, Carlsbad, Calif.). Gels were stained with Microwave Blue according to manufacturer's recommendations (Protiga, Frederick, Md.).
DNA (20 nM) containing a [5′-^32P]-label on one strand and a thiol-modified cytosine on the other strand was added and reactions were capped with methylmethanethiosulfonate at 1 minute. Following capping, non-reducing gel loading buffer (100 mM Tris-HCl, pH 6.8, 4% SDS, 0.2% bromophenol blue, 20% glycerol) was added and samples were directly loaded on 16% tricine gels (Invitrogen, Carlsbad, Calif.). Gels were dried and reaction products were quantitated using the same way as described above.

[6] = In vitro IC50 21 bp substrate ST, Mg2+
[7] = In vitro IC50 21 bp substrate ST, Mn2+
[8] = Mn2+ as cofactor, U5 LTR DNA substrate
[9] = read-out: inhibition activity, 3′-P, 21 bp substrate, Mg2+
[10] = read-out: inhibition activity, 3′-P, 21 bp substrate, Mn2+
[11] = read-out: inhibition activity, preprocessed substrate, Mg2+
[12] = read-out: inhibition activity, preprocessed substrate, Mn2+

| SMILES | IC50 [1, 6] [µM] | IC50 [1, 7] [µM] | potency against HIV-1 integrase relative to the minimal tropolone core [1, 8] | inhibition activity, ST, 21 bp substrate ([1]; Mn2+) | inhibition at 333 µM [1] [%] | IC50 ([2]; Mg2+) [µM] | IC50 ([2]; Mn2+) [µM] | inhibition at 333 µM [2, 9] [%] | inhibition at 333 µM [2, 10] [%] | IC50 ([3]; Mg2+) [µM] | IC50 ([3]; Mn2+) [µM] | inhibition at 333 µM [3, 11] [%] | inhibition at 333 µM [3, 12] [%] | IC50 ([4]; Mg2+) [µM] | IC50 ([4]; Mn2+) [µM] | inhibition activity, disintegration ([4]; Mn2+) | inhibition at 333 µM [4] [%] | inhibition of integrase-DNA disulfide-crosslinking (in words) [5] | IC50 ([1]; IC50, inhibition of HIV-1 integrase (first screen), Mn2+ as cofactor, U5 LTR DNA substrate, 3′-P or ST not specified) [µM] |
| --- | --- | --- | --- | --- | --- | --- | --- | --- | --- | --- | --- | --- | --- | --- | --- | --- | --- | --- | --- |
| CC(C)c1cccc(=O)c(O)c1 [NSC 18804, β-thujaplicin] | > 333 | > 333 | failed to increase potency | 2 (5% < inhibition activity < 20%) | 5 to 20 | > 333 | > 333 | 20 to 40 | 20 to 40 | > 333 | > 333 | 5 to 20 | 5 to 20 | > 333 | > 333 | 1 (inhibition activity ≦ 5%) | < 5 | lack of inhibition |  |
| CC(C)c1ccc(O)c(=O)cc1 [NSC 43338, γ-thujaplicin] | > 333 | > 333 | failed to increase potency | 1 (inhibition activity ≦ 5%) | < 5 | > 333 | > 333 | < 5 | < 5 | > 333 | > 333 | < 5 | < 5 | > 333 | > 333 | 1 (inhibition activity ≦ 5%) | < 5 |  |  |
| CC(C)=CCc1ccc(=O)c(O)cc1C(C)C [NSC 43339, nootkatin] | > 333 | > 333 | failed to increase potency | 3 (20% < inhibition activity < 40% at drug concentration of 333 μM) | 20 to 40 | > 333 | > 333 | 5 to 20 | 5 to 20 | > 333 | > 333 | 5 to 20 | 20 to 40 | > 333 | > 333 | 1 (inhibition activity ≦ 5%) | < 5 |  |  |
| CC(C)c1ccccc(=O)c1O [NSC 18805, α-thujaplicin] | > 333 | > 333 | failed to increase potency | 1 (inhibition activity ≦ 5%) | < 5 | > 333 | > 333 | 5 to 20 | 5 to 20 | > 333 | > 333 | < 5 | < 5 | > 333 | > 333 | 1 (inhibition activity ≦ 5%) | < 5 |  |  |
| O=c1cccccc1O [NSC 89303, tropolone] | > 333 | > 333 |  | 3 (20% < inhibition activity < 40% at drug concentration of 333 μM) | 20 to 40 | > 333 | > 333 | < 5 | 5 to 20 | > 333 | > 333 | 5 to 20 | 5 to 20 | > 333 | > 333 | 1 (inhibition activity ≦ 5%) | < 5 |  | > 333 |
| C=C(C)C1CCc2c(c(C)cc(O)c(=O)c2O)C1 (stereo not drawn) [NSC 310618, manicol] | 71.1 ± 3.8 | 11.7 ± 5.2 |  |  |  | 182 ± 42.5 | 20.2 |  |  | > 333 | 25.8 | 20 to 40 |  | > 333 | 98.3 |  | 5 to 20 |  |  |
